Each compound was assayed on JAK1-dependent STAT6 phosphorylation downstream of IL-13 stimulation in TF-1 human erythroleukemia cells (assay: cells). Conditions: TF-1, read-out: IL-13-pSTAT6 IC50.

Row | Compound | IC50 [nM]
1 | O=C(CCC(F)(F)F)N1CC=C(c2cccn3nc(Nc4ccc(C(=O)N5CCC6(CCNC6)C5)cc4)nc23)CC1 (stereo not drawn) [Example 2-28, 1-[4-[2-[4-(2,7-diazaspiro[4.4]nonane-2-carbonyl)anilino]-[1,2,4]triazolo[1,5-a]pyridin-8-yl]-3,6-dihydro-2H-pyridin-1-yl]-4,4,4-trifluoro-butan-1-one] | 207
2 | O=C(CCC(F)(F)F)N1CC=C(c2cccn3nc(Nc4ccc(C(=O)N5CCC6(CCNCC6)CC5)cc4)nc23)CC1 [Example 2-29, 1-[4-[2-[4-(3,9-diazaspiro[5.5]undecane-3-carbonyl)anilino]-[1,2,4]triazolo[1,5-a]pyridin-8-yl]-3,6-dihydro-2H-pyridin-1-yl]-4,4,4-trifluoro-butan-1-one] | 80.3
3 | O=C(NCC1CNCCO1)c1ccc(Nc2nc3c(C4=CCN(C(=O)CCC(F)(F)F)CC4)cccn3n2)cc1 (stereo not drawn) [Example 2-30, N-(morpholin-2-ylmethyl)-4-[[8-[1-(4,4,4-trifluorobutanoyl)-3,6-dihydro-2H-pyridin-4-yl]-[1,2,4]triazolo[1,5-a]pyridin-2-yl]amino]benzamide] | 40.3
4 | CNCCNC(=O)c1ccc(Nc2nc3c(C4=CCN(C(=O)CCC(F)(F)F)CC4)cccn3n2)cc1 [Example 2-31, N-[2-(methylamino)ethyl]-4-[[8-[1-(4,4,4-trifluorobutanoyl)-3,6-dihydro-2H-pyridin-4-yl]-[1,2,4]triazolo[1,5-a]pyridin-2-yl]amino]benzamide] | 181
5 | O=C(CCC(F)(F)F)N1CC=C(c2cccn3nc(Nc4ccc(C(=O)N5CCNCC5CO)cc4)nc23)CC1 (stereo not drawn) [Example 2-33, 4,4,4-trifluoro-1-[4-[2-[4-[2-(hydroxymethyl)piperazine-1-carbonyl]anilino]-[1,2,4]triazolo[1,5-a]pyridin-8-yl]-3,6-dihydro-2H-pyridin-1-yl]butan-1-one] | 23.3
6 | O=C(CCC(F)(F)F)N1CC=C(c2cccn3nc(Nc4ccc(C(=O)N5CCCCC56CCCNC6)cc4)nc23)CC1 (stereo not drawn) [Example 2-34, 1-[4-[2-[4-(1,8-diazaspiro[5.5]undecane-1-carbonyl)anilino]-[1,2,4]triazolo[1,5-a]pyridin-8-yl]-3,6-dihydro-2H-pyridin-1-yl]-4,4,4-trifluoro-butan-1-one] | 352
7 | O=C(CCC(F)(F)F)N1CC=C(c2cccn3nc(Nc4ccc(C(=O)N5CC6(CCNC6)C5)cc4)nc23)CC1 [Example 2-35, 1-[4-[2-[4-(2,7-diazaspiro[3.4]octane-2-carbonyl)anilino]-[1,2,4]triazolo[1,5-a]pyridin-8-yl]-3,6-dihydro-2H-pyridin-1-yl]-4,4,4-trifluoro-butan-1-one] | 95
8 | O=C(CCC(F)(F)F)N1CC=C(c2cccn3nc(Nc4ccc(C(=O)N5CC6CNCC(C5)O6)cc4)nc23)CC1 [Example 2-37, 4,4,4-trifluoro-1-[4-[2-[4-(9-oxa-3,7-diazabicyclo[3.3.1]nonane-3-carbonyl)anilino]-[1,2,4]triazolo[1,5-a]pyridin-8-yl]-3,6-dihydro-2H-pyridin-1-yl]butan-1-one] | 85.4
9 | Cc1ccnc(CNC(=O)c2ccc(Nc3nc4c(C5=CCN(C(=O)CCC(F)(F)F)CC5)cccn4n3)cc2)c1 [Example 2-41, N-[(4-methyl-2-pyridyl)methyl]-4-[[8-[1-(4,4,4-trifluorobutanoyl)-3,6-dihydro-2H-pyridin-4-yl]-[1,2,4]triazolo[1,5-a]pyridin-2-yl]amino]benzamide] | 5.2
10 | Cc1ncccc1CNC(=O)c1ccc(Nc2nc3c(C4=CCN(C(=O)CCC(F)(F)F)CC4)cccn3n2)cc1 [Example 2-42, N-[(2-methyl-3-pyridyl)methyl]-4-[[8-[1-(4,4,4-trifluorobutanoyl)-3,6-dihydro-2H-pyridin-4-yl]-[1,2,4]triazolo[1,5-a]pyridin-2-yl]amino]benzamide] | 4.7
11 | O=C(CCC(F)(F)F)N1CC=C(c2cccn3nc(Nc4ccc(C(=O)N5CCC(N6CCOCC6)C5)cc4)nc23)CC1 (stereo not drawn) [Example 2-45, 4,4,4-trifluoro-1-[4-[2-[4-(3-morpholinopyrrolidine-1-carbonyl)anilino]-[1,2,4]triazolo[1,5-a]pyridin-8-yl]-3,6-dihydro-2H-pyridin-1-yl]butan-1-one] | 9
12 | O=C(CCC(F)(F)F)N1CC=C(c2cccn3nc(Nc4ccc(C(=O)N5CCC(N6CCCC6)CC5)cc4)nc23)CC1 [Example 2-46, 4,4,4-trifluoro-1-[4-[2-[4-(4-pyrrolidin-1-ylpiperidine-1-carbonyl)anilino]-[1,2,4]triazolo[1,5-a]pyridin-8-yl]-3,6-dihydro-2H-pyridin-1-yl]butan-1-one] | 20.5
13 | Cc1ccc(C2CCCN(C(=O)c3ccc(Nc4nc5c(C6=CCN(C(=O)CCC(F)(F)F)CC6)cccn5n4)cc3)C2)nc1 (stereo not drawn) [Example 2-50, 4,4,4-tri fluoro-1-[4-[2-[4-[3-(5-methyl-2-pyridyl)piperidine-1-carbonyl]anilino]-[1,2,4]triazolo[1,5-a]pyridin-8-yl]-3,6-dihydro-2H-pyridin-1-yl]butan-1-one] | 65.1
14 | CN(C)c1ccc(C2CCCN(C(=O)c3ccc(Nc4nc5c(C6=CCN(C(=O)CCC(F)(F)F)CC6)cccn5n4)cc3)C2)nc1 (stereo not drawn) [Example 2-51, 1-[4-[2-[4-[3-[5-(dimethylamino)-2-pyridyl]piperidine-1-carbonyl]anilino]-[1,2,4]triazolo[1,5-a]pyridin-8-yl]-3,6-dihydro-2H-pyridin-1-yl]-4,4,4-trifluoro-butan-1-one] | 70.2
15 | CCOC(=O)N1CC=C(c2cccn3nc(Nc4ccc(C(=O)N5CC(NC)C5)cc4)nc23)CC1 [Example 2-55, Ethyl 4-[2-[4-[3-(methylamino)azetidine-1-carbonyl]anilino]-[1,2,4]triazolo[1,5-a]pyridin-8-yl]-3,6-dihydro-2H-pyridine-1-carboxylate] | 10
16 | CCOC(=O)N1CC=C(c2cccn3nc(Nc4ccc(C(=O)N5CCC(c6ccncc6)C5)cc4)nc23)CC1 (stereo not drawn) [Example 2-62, ethyl 4-[2-[4-[3-(4-pyridyl)pyrrolidine-1-carbonyl]anilino]-[1,2,4]triazolo[1,5-a]pyridin-8-yl]-3,6-dihydro-2H-pyridine-1-carboxylate] | 30
17 | CCOC(=O)N1CC=C(c2cccn3nc(Nc4ccc(C(=O)N5CCCC5c5ccc(C)cn5)cc4)nc23)CC1 (stereo not drawn) [Example 2-67, ethyl 4-[2-[4-[2-(5-methyl-2-pyridyl)pyrrolidine-1-carbonyl]anilino]-[1,2,4]triazolo[1,5-a]pyridin-8-yl]-3,6-dihydro-2H-pyridine-1-carboxylate] | 40.9
18 | CCOC(=O)N1CC=C(c2cccn3nc(Nc4ccc(C(=O)N5CC6(CCN(C)C6)C5)cc4)nc23)CC1 [Example 2-68, ethyl 4-[2-[4-(7-methyl-2,7-diazaspiro[3.4]octane-2-carbonyl)anilino]-[1,2,4]triazolo[1,5-a]pyridin-8-yl]-3,6-dihydro-2H-pyridine-1-carboxylate] | 11.9
19 | CCOC(=O)N1CC=C(c2cccn3nc(Nc4ccc(C(=O)N5Cc6cccnc6C5)cc4)nc23)CC1 [Example 2-70, ethyl 4-[2-[4-(5,7-dihydropyrrolo[3,4-b]pyridine-6-carbonyl)anilino]-[1,2,4]triazolo[1,5-a]pyridin-8-yl]-3,6-dihydro-2H-pyridine-1-carboxylate] | 29.8

Other lines, results leading:

Row | IC50 [nM] | Compound
20 | 536 | O=C(NCCN1CCNCC1)c1ccc(Nc2nc3c(C4=CCN(C(=O)CCC(F)(F)F)CC4)cccn3n2)cc1 [Example 2-32, N-(2-piperazin-1-ylethyl)-4-[[8-[1-(4,4,4-trifluorobutanoyl)-3,6-dihydro-2H-pyridin-4-yl]-[1,2,4]triazolo[1,5-a]pyridin-2-yl]amino]benzamide]
21 | 34.7 | CCN1CCC(CN(C)C(=O)c2ccc(Nc3nc4c(C5=CCN(C(=O)CCC(F)(F)F)CC5)cccn4n3)cc2)C1 (stereo not drawn) [Example 2-39, N-[(1-ethylpyrrolidin-3-yl)methyl]-N-methyl-4-[[8-[1-(4,4,4-trifluorobutanoyl)-3,6-dihydro-2H-pyridin-4-yl]-[1,2,4]triazolo[1,5-a]pyridin-2-yl]amino]benzamide]
22 | 27.8 | CC(CC(=O)N1CC=C(c2cccn3nc(Nc4ccc(C(=O)N(C)C5CCN(C)CC5)cc4)nc23)CC1)C(F)(F)F (stereo not drawn) [Example 2-43, N-methyl-N-(1-methyl-4-piperidyl)-4-[[8-[1-(4,4,4-trifluoro-3-methyl-butanoyl)-3,6-dihydro-2H-pyridin-4-yl]-[1,2,4]triazolo[1,5-a]pyridin-2-yl]amino]benzamide]
23 | 15.7 | CC1CCCCN1CCCNC(=O)c1ccc(Nc2nc3c(C4=CCN(C(=O)CCC(F)(F)F)CC4)cccn3n2)cc1 (stereo not drawn) [Example 2-47, N-[3-(2-methyl-1-piperidyl)propyl]-4-[[8-[1-(4,4,4-trifluorobutanoyl)-3,6-dihydro-2H-pyridin-4-yl]-[1,2,4]triazolo[1,5-a]pyridin-2-yl]amino]benzamide]
24 | 33.5 | CN1CCCC1CCNC(=O)c1ccc(Nc2nc3c(C4=CCN(C(=O)CCC(F)(F)F)CC4)cccn3n2)cc1 (stereo not drawn) [Example 2-48, N-[2-(1-methylpyrrolidin-2-yl)ethyl]-4-[[8-[1-(4,4,4-trifluorobutanoyl)-3,6-dihydro-2H-pyridin-4-yl]-[1,2,4]triazolo[1,5-a]pyridin-2-yl]amino]benzamide]
25 | 60 | CN1CCC(N(C)C(=O)c2ccc(Nc3nc4c(C5=CCN(CC#N)CC5)cccn4n3)cc2)CC1 [Example 2-52, 4-[[8-[1-(cyanomethyl)-3,6-dihydro-2H-pyridin-4-yl]-[1,2,4]triazolo[1,5-a]pyridin-2-yl]amino]-N-methyl-N-(1-methyl-4-piperidyl)benzamide]
26 | 16.3 | CN1CCC(N(C)C(=O)c2ccc(Nc3nc4c(C5=CCN(C(=O)CC(C)(C)C)CC5)cccn4n3)cc2)CC1 [Example 2-54, 4-[[8-[1-(3,3-dimethylbutanoyl)-3,6-dihydro-2H-pyridin-4-yl]-[1,2,4]triazolo[1,5-a]pyridin-2-yl]amino]-N-methyl-N-(1-methyl-4-piperidyl)benzamide]
27 | 20.4 | CCOC(=O)N1CC=C(c2cccn3nc(Nc4ccc(C(=O)NC5CCN(C)CC5)cc4)nc23)CC1 [Example 2-60, ethyl 4-[2-[4-[(1-methyl-4-piperidyl)carbamoyl]anilino]-[1,2,4]triazolo[1,5-a]pyridin-8-yl]-3,6-dihydro-2H-pyridine-1-carboxylate]
